Structures are written as SMILES.

We go through 2 compounds from patent publication US9527834B2, “Substituted 1-benzylquinoxalin-2(1H)-one analogs as positive allosteric modulators of muscarinic acetylcholine receptor M1” (Vanderbilt University, priority 2013, dated 2016).

The test deals with T1, mAChR M1 (Homo sapiens, UniProt P11229).
T1 construct: expressed in transfected cells; host or cells: CHO-K1
T1 sequence (P11229 1-460): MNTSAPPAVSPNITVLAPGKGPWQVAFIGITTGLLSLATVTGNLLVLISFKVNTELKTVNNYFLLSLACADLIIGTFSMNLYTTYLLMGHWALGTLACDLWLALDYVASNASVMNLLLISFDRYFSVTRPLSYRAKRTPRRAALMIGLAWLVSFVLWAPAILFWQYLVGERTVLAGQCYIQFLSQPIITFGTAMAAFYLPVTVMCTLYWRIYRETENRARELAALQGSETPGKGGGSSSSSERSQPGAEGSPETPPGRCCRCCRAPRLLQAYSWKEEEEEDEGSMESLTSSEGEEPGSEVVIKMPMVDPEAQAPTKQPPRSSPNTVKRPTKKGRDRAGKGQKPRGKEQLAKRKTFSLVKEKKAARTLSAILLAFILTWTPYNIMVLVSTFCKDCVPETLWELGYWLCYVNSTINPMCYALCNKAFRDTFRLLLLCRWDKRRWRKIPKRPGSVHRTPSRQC
Description: mAChR M1 cell-based functional assay (calcium mobilization, potentiation of EC20 acetylcholine response). The conditions noted are these: mAChR M1-expressing CHO-K1 cells; calcium flux; >10 μM estimated for low potency (no plateau) with >20% increase in ACh response. The source says: Chinese hamster ovary (CHO-K1) cells stably expressing rat (r)M1 were purchased from the American Type Culture Collection and cultured according to their indicated protocol. CHO cells stably expressing human (h)M2, hM3, and hM5 were described previously (Levey, A. I., et al., J Neurosci. 1991, 11, 3218-3226.); hM1 and hM4 cDNAs were purchased from Missouri S&T cDNA Resource; rM4 cDNA was provided by T. I. Bonner (National Institutes of Health, Bethesda, Md.). rM2 and rM3 were cloned from a rat brain cDNA library and sequence verified. hM1, rM2, rM3, hM4, and rM4 cDNAs were used to stably transfect CHO-K1 cells purchased from the American Type Culture Collection using Lipofectamine2000. […]
Calcium flux was measured using the Functional Drug Screening System (FDSS) 6000 (Hamamatsu Corporation, Tokyo, Japan) as an increase in the fluorescent static ratio. […] Agonist activity was analyzed as a concentration-dependent increase in calcium mobilization upon compound addition. Positive allosteric modulator activity was analyzed as a concentration-dependent increase in the EC20 acetylcholine response. Antagonist activity was analyzed as a concentration-dependent decrease in the EC80 acetylcholine response. […]

By EC50 is commonly meant the concentration that produces a half-maximal response. As to `Cn1cc(-c2ccc(Cn3c(=O)cnc4ccccc43)cc2)cn1` [Compound B2], the EC50 is greater than 10 µM.

Consider `Cn1cc2c(-c3cc(F)c(Cn4c(=O)cnc5ccccc54)c(F)c3)cccc2n1` [Compound B1, 1-(2,6-difluoro-4-(2-methyl-2H-indazol-4-yl)benzyl)quinoxalin-2(1H)-one], for which the EC50 is 3.45 µM.
